In US20240173435A1, “GENE DELIVERY FOR PREVENTION AND TREATMENT OF BALDNESS” (NEW JERSEY INSTITUTE OF TECHNOLOGY, priority 2022, published 2024):

Experiments:
[1] = Ionizable cationic lipid library screening, in vitro delivery of luciferase mRNA (mLuc); assay type: cell-based; settings: 18*8 library, lipid:DOPE:cholesterol:DMG-PEG 50:10:38.5:1.5
Source text: An ionizable cationic lipid is generally composed of three parts: (1) hydrophilic headgroups containing one or multiple ionizable amines for condensing negatively charged mRNA; (2) hydrophobic hydrocarbon chains capable of promoting self-assembly and phospholipid membrane fusion; (3) degradable ester linkers connecting the headgroups with hydrocarbon chains to potentially lower systemic cytotoxicity (FIG. 8b). A new library of ionizable cationic lipids is designed, where the ionizable amine headgroups originated from different amino alcohols and the hydrocarbon lipid chains were derived from commercially available lipid acids. Through CALB enzyme-assisted reaction, the hydroxyl groups were reacted with carboxylic acids via one-step high-efficiency esterification (FIG. 8a) and an 18*8 library of lipid-like materials was synthesized by varying amino alcohols and lipid acids (ACS Nano, 16 (11) 18936-18950). Preliminarily, these lipid-like materials with DOPE, cholesterol, and DMG-PEG were fabricated at a molar ratio of 50:10:38.5:1.5, which was the most widely used formulation to form LNPs and delivered luciferase encoded mRNA (mLuc) in vitro to generate a luciferase expression heat map of lipid-like materials.

Androgen Receptor gene = experiment: Knockout percentage by Sanger sequencing and ICE analysis of GFP-positive sorted cells; assay type: cell-based, human; settings: GFP-positive sorted HEK 293T cells, ICE analysis, n=5
Method: Cas9 mRNA was purchased from Tri-Link Biotechnologies. Guide RNAs, which target the 1st coding exon in both human and mouse AR genes, were designed so that any frameshift mutation would result in early termination of translation. All gRNAs were obtained from Synthego with “end-modified” synthesis where the first and last three bases of these gRNA were synthesized using 2′-O-Methyl-nucleosides and joined via 3′ phosphorothioate bonds.
The in vitro transfection efficacy was evaluated in the HEK 293 cell line by delivering plasmid PX458 integrated with GFP, Cas9 and gRNA sequence, utilizing nanoparticles. Briefly, 1×10^5 HEK 293 cells were seeded into each well of 24-well plate with 0.5 mL complete culture medium and incubated at 37° C. overnight to allow cell attachment. Then the LNPs were seeded at 24 h. The transfected GFP positive cells were observed under All-in-One Fluorescence Microscope (BZ-X710, Keyence, Japan) at predetermined time points with brightfield, fluorescent and merged channels using 10×PanFluor lens (Nikon, Japan). […] The cell pellets were resuspended in 0.5 mL PBS for flow cytometric analysis using a BD LSR II flow cytometer (BD Biosciences, San Jose, CA) and the data were analyzed using FACSDiva software (BD Biosciences, San Jose, CA). […]

With `CCCCC/C=C/C/C=C/CCCCCCCC(=O)OCCN1CCN(CCOC(=O)CCCCCCC/C=C/C/C=C/CCCCC)CC1` [AA3-DLin] the “luciferase expression rank in lipid library screen” value [1] was “top-performing”.
In the case of “TGATCCAGAACCCGGGCCCC (guide UGAUCCAGAACCCGGGCCCC; listed as RNA, chemistry not fully specified) [sgRNA1, PAM AGG, strand +]”, the “knockout (percentage of transfected cells showing insertion or deletion)” value (Androgen Receptor gene) is reported as ~76%.
For “GAGCGTGCGCGAAGCGATCC (guide GAGCGUGCGCGAAGCGAUCC; listed as RNA, chemistry not fully specified) [sgRNA2, PAM AGG, strand +]”, the “knockout (percentage of transfected cells showing insertion or deletion)” value (Androgen Receptor gene) was ~51%.
